Data as given in publication PMC9409388 (2022).

Legend:
[1] = tested on: KRAS (DNA, G4) GGGCGGTGTGGGAAGAGGGAAGAGGGGGAGG; assay: thiazole orange displacement (G4-FID); settings: 100 mM KCl; 10 mM sodium cacodylate pH 7.3, 18 °C; thiazole orange displaced; from DC50, assumed TO Kb 2.5 × 10^6
[2] = tested on: VEGF (VEGFA) (DNA, G4) GGGGCGGGCCGGGGGCGGGG; assay: thiazole orange displacement (G4-FID); settings: 100 mM KCl; 10 mM sodium cacodylate pH 7.3, 18 °C; thiazole orange displaced; from DC50, assumed TO Kb 2.5 × 10^6
[3] = tested on: DNA hairpin (DNA, hairpin) CAATCGGATCGAATTCGATCCGATTG; assay: thiazole orange displacement (G4-FID); settings: 100 mM KCl, 10 mM sodium cacodylate pH 7.3, 18 °C, thiazole orange displaced; for Kb: from DC50, TO Kb 3.03 × 10^6
[4] = tested on: BCL2 (DNA, G4) AGGGGCGGGCGCGGGAGGAAGGGGGCGGGAGCGGGGC; assay: thiazole orange displacement (G4-FID); settings: 100 mM KCl, 10 mM sodium cacodylate pH 7.3, 18 °C
[5] = tested on: WNT1 (DNA, G4) GGGGGCCACCGGGCAGGGGGCGGGGG; assay: thiazole orange displacement (G4-FID); settings: 100 mM KCl, 10 mM sodium cacodylate pH 7.3, 18 °C
[6] = tested on: c-MYC (DNA, G4) GGGGAGGGTGGGGAGGGTGGGGAAGG; assay: thiazole orange displacement (G4-FID); settings: 100 mM KCl; 10 mM sodium cacodylate pH 7.3, 18 °C; thiazole orange displaced; from DC50, TO Kb 1.50 × 10^6
[7] = tested on: c-MYC (DNA, G4) GGGGAGGGTGGGGAGGGTGGGGAAGG; assay: thiazole orange displacement (G4-FID); settings: 100 mM KCl; 10 mM sodium cacodylate pH 7.3, 18 °C; 1 µM thiazole orange displaced, 0.5 µM DNA
[8] = tested on: KRAS (DNA, G4) GGGCGGTGTGGGAAGAGGGAAGAGGGGGAGG; assay: thiazole orange displacement (G4-FID); settings: 100 mM KCl, 10 mM sodium cacodylate pH 7.3, 18 °C
[9] = tested on: Tel (DNA, G4) GGGTTAGGGTTAGGGTTAGGGTTA; assay: thiazole orange displacement (G4-FID); settings: 100 mM KCl; 10 mM sodium cacodylate pH 7.3, 18 °C; thiazole orange displaced; from DC50, TO Kb 2.62 × 10^6
[10] = tested on: Tel (DNA, G4) GGGTTAGGGTTAGGGTTAGGGTTA; assay: thiazole orange displacement (G4-FID); settings: 100 mM KCl, 10 mM sodium cacodylate pH 7.3, 18 °C
[11] = tested on: BCL2 (DNA, G4) AGGGGCGGGCGCGGGAGGAAGGGGGCGGGAGCGGGGC; assay: thiazole orange displacement (G4-FID); settings: 100 mM KCl; 10 mM sodium cacodylate pH 7.3, 18 °C; thiazole orange displaced; from DC50, assumed TO Kb 2.5 × 10^6
[12] = tested on: WNT1 (DNA, G4) GGGGGCCACCGGGCAGGGGGCGGGGG; assay: thiazole orange displacement (G4-FID); settings: 100 mM KCl; 10 mM sodium cacodylate pH 7.3, 18 °C; thiazole orange displaced; from DC50, assumed TO Kb 2.5 × 10^6
[13] = tested on: c-KIT (DNA, G4) GGGAGGGCGCTGGGAGGAGGG; assay: thiazole orange displacement (G4-FID); settings: 100 mM KCl, 10 mM sodium cacodylate pH 7.3, 18 °C
[14] = tested on: c-KIT (DNA, G4) GGGAGGGCGCTGGGAGGAGGG; assay: thiazole orange displacement (G4-FID); settings: 100 mM KCl; 10 mM sodium cacodylate pH 7.3, 18 °C; thiazole orange displaced; from DC50, assumed TO Kb 2.5 × 10^6
[15] = tested on: VEGF (VEGFA) (DNA, G4) GGGGCGGGCCGGGGGCGGGG; assay: thiazole orange displacement (G4-FID); settings: 100 mM KCl, 10 mM sodium cacodylate pH 7.3, 18 °C
[16] = tested on: c-MYC (DNA, G4) GGGGAGGGTGGGGAGGGTGGGGAAGG; assay: UV melting at 295 nm; settings: 140 mM NaCl, 0.5 mM KCl; 20 mM Tris-HCl pH 7.3; 2 equivalents of compound, ~3 µM DNA
[17] = tested on: DNA hairpin (DNA, hairpin) CAATCGGATCGAATTCGATCCGATTG; assay: thiazole orange displacement (G4-FID); settings: 100 mM KCl, 10 mM sodium cacodylate pH 7.3, 18 °C
[18] = 1 µM thiazole orange displaced, 0.5 µM DNA
[19] = thiazole orange displaced, highest concentration 10 µM
[20] = thiazole orange displaced, above highest stated concentration (10 µM)

CC1=CC(=O)C(C(C)C)=CC1=O
Kb [1]: 1.52 ± 0.22 × 10^6 M^-1
Kb [2]: 1.50 ± 0.21 × 10^6 M^-1
binding ([3]; Kb printed as 0, up to 10 µM): no
DC50 [4, 18]: 1.22 ± 0.10 µM
DC50 [5, 18]: 1.29 ± 0.19 µM
Kb [6]: 0.63 ± 0.04 × 10^6 M^-1
DC50 [7]: 3.97 ± 0.25 µM
DC50 [8, 18]: 2.30 ± 0.33 µM
Kb [9]: 1.68 ± 0.13 × 10^6 M^-1
DC50 [10, 18]: 2.15 ± 0.17 µM
Kb [11]: 2.87 ± 0.41 × 10^6 M^-1
Kb [12]: 2.71 ± 0.39 × 10^6 M^-1
DC50 [13, 18]: 2.17 ± 0.31 µM
Kb [14]: 1.61 ± 0.23 × 10^6 M^-1
DC50 [15, 18]: 2.33 ± 0.33 µM

COc1cc(/C=C/C(=O)CC(=O)/C=C/c2ccc(O)c(OC)c2)ccc1O
DC50 [4, 19]: > 10 µM
DC50 [5, 19]: > 10 µM
Kb [6]: 0.26 ± 0.02 × 10^6 M^-1
DC50 [7]: 9.62 ± 0.70 µM
DC50 [8, 19]: > 10 µM
DC50 [10, 19]: > 10 µM
DC50 [13, 19]: > 10 µM
DC50 [15, 19]: > 10 µM

C[n+]1cc2c3c(ccc2c2ccc4cc5c(cc4c21)OCO5)OCO3
increase in Tm [16]: 3.5 ± 0.3 °C
Kb [1]: 0.93 ± 0.13 × 10^6 M^-1
Kb [2]: 0.86 ± 0.12 × 10^6 M^-1
Kb [3]: 1.30 ± 0.17 × 10^6 M^-1
DC50 [4, 18]: 0.85 ± 0.12 µM
DC50 [5, 18]: 1.24 ± 0.17 µM
Kb [6]: 7.76 ± 0.53 × 10^6 M^-1
DC50 [7]: 0.32 ± 0.02 µM
DC50 [8, 18]: 3.76 ± 0.53 µM
Kb [9]: 0.43 ± 0.03 × 10^6 M^-1
DC50 [17, 18]: 3.08 ± 0.40 µM
DC50 [10, 18]: 8.42 ± 0.59 µM
Kb [11]: 4.12 ± 0.59 × 10^6 M^-1
Kb [12]: 2.83 ± 0.40 × 10^6 M^-1
DC50 [13, 18]: 1.07 ± 0.15 µM
Kb [14]: 3.28 ± 0.47 × 10^6 M^-1
DC50 [15, 18]: 4.07 ± 0.57 µM

O=C(O[C@@H]1Cc2c(O)cc(O)cc2O[C@@H]1c1cc(O)c(O)c(O)c1)c1cc(O)c(O)c(O)c1
Kb [1]: 1.62 ± 0.23 × 10^6 M^-1
Kb [2]: 1.75 ± 0.25 × 10^6 M^-1
DC50 [4, 18]: 0.96 ± 0.14 µM
DC50 [5, 18]: 1.27 ± 0.18 µM
Kb [6]: 2.94 ± 0.20 × 10^6 M^-1
DC50 [7]: 0.85 ± 0.06 µM
DC50 [8, 18]: 2.16 ± 0.31 µM
Kb [9]: 1.81 ± 0.14 × 10^6 M^-1
DC50 [10, 18]: 2.00 ± 0.15 µM
Kb [11]: 3.65 ± 0.52 × 10^6 M^-1
Kb [12]: 2.75 ± 0.39 × 10^6 M^-1
DC50 [13, 18]: 2.43 ± 0.35 µM
Kb [14]: 1.44 ± 0.21 × 10^6 M^-1
DC50 [15, 18]: 2.00 ± 0.28 µM

O=c1c(O)c(-c2ccc(O)c(O)c2)oc2cc(O)cc(O)c12
increase in Tm [16]: 3.0 ± 0.3 °C
Kb [1]: 1.72 ± 0.25 × 10^6 M^-1
Kb [2]: 3.10 ± 0.44 × 10^6 M^-1
Kb [3]: 0.038 ± 0.004 × 10^6 M^-1
DC50 [4, 18]: 0.63 ± 0.09 µM
DC50 [5, 18]: 1.69 ± 0.24 µM
Kb [6]: 5.33 ± 0.36 × 10^6 M^-1
DC50 [7]: 0.47 ± 0.03 µM
DC50 [8, 18]: 2.03 ± 0.30 µM
Kb [9]: 7.43 ± 0.55 × 10^6 M^-1
DC50 [17, 20]: 105.26 ± 11.08 µM
DC50 [10, 18]: 0.49 ± 0.04 µM
Kb [11]: 5.56 ± 0.79 × 10^6 M^-1
Kb [12]: 2.07 ± 0.30 × 10^6 M^-1
DC50 [13, 18]: 0.92 ± 0.13 µM
Kb [14]: 3.80 ± 0.54 × 10^6 M^-1
DC50 [15, 18]: 1.13 ± 0.16 µM

O=c1c(O)c(-c2ccc(O)cc2)oc2cc(O)cc(O)c12
Kb [1]: 1.63 ± 0.23 × 10^6 M^-1
Kb [2]: 2.09 ± 0.30 × 10^6 M^-1
Kb [3]: 0.035 ± 0.002 × 10^6 M^-1
DC50 [4, 18]: 2.00 ± 0.28 µM
DC50 [5, 18]: 1.16 ± 0.16 µM
Kb [6]: 1.16 ± 0.08 × 10^6 M^-1
DC50 [7]: 2.16 ± 0.15 µM
DC50 [8, 18]: 2.15 ± 0.31 µM
Kb [9]: 1.81 ± 0.14 × 10^6 M^-1
DC50 [17, 20]: 114.29 ± 6.53 µM
DC50 [10, 18]: 2.00 ± 0.15 µM
Kb [11]: 1.75 ± 0.25 × 10^6 M^-1
Kb [12]: 3.03 ± 0.43 × 10^6 M^-1
DC50 [13, 18]: 2.15 ± 0.30 µM
Kb [14]: 1.63 ± 0.23 × 10^6 M^-1
DC50 [15, 18]: 1.67 ± 0.24 µM
